Source: patent US8871767B2, “2-arylimidazo[1,2-B]pyridazine, 2-phenylimidazo[1,2-A]pyridine, and 2-phenylimidazo[1,2-A]pyrazine derivatives” (Hengrui (USA) Ltd., priority 2010, dated 2014)

test system: Hedgehog pathway activation (GLi-luciferase reporter) in Shh Light II reporter cells; assay: Hedgehog pathway activation on Shh Light II reporter cells measured by luciferase activity; type: cell-based; details: Mus musculus, Shh Light II, hShh activation, read-out: Shh (IC50, inhibition of Hedgehog pathway activation)
Protocol: Hedgehog conditioned media was obtained by transfecting 293H cells with the full length gene encoding human Sonic Hedgehog (hShh) inserted into the pCMV6 expression vector, which contains a neomycin selectable marker and expresses the protein of interest with a C-terminal FLAG affinity tag. After selection in G418 containing media, conditioned media from Hedgehog expressing clones were tested for the ability to activate the hedgehog-responsive GLi-luciferase reporter in the Shh Light II cell line obtained by license from John Hopkins University (Taipale J, et al. Effects of oncogenic mutations in Smoothened and Patched can be reversed by cyclopamine. Nature 406: 1005-1009, 2000).
A test compound library was screened against hShh and 500 nM SAG (a direct agonist of the Smoothened receptor) activated 10T1/2/Smo#3 cells and Shh Light II reporter cells for the ability to block Hedgehog pathway activation. Concurrently, cell viability was measured by utilizing Celltiter-Blue® (Promega, Madison Wis.) viability assay. Active compounds were defined as those that inhibited Hedgehog signaling by greater than 50% with no concurrent loss in cell viability.
Their inhibitory activity against Hedgehog pathway activation on 10T1/2/Smo#3 cells as measured by ALP activity and Shh Light II reporter cells as measured by luciferase activity is shown in Table 1 below. In Table 1, +++ stands for an IC50 value that is less than 0.3 μM, ++ between 0.3 and 3 μM, + between 3 and 30 μM.
Additional data for compounds of the invention is shown below in Table 2. Their inhibitory activities against Hedgehog pathway activation are shown as IC50 values in μM on 10T1/2/Smo#3 cells as measured by ALP activity, or on Shh Light II reporter cells as measured by luciferase activity (hShh activation).

COC(=O)c1csc(-c2ccc3nc(-c4ccc(C)c(NC(=O)C(C)(C)C)c4)cn3n2)n1 [Example 446, methyl 2-(2-(4-methyl-3-pivalamidophenyl)imidazo[1,2-b]pyridazin-6-yl)thiazole-4-carboxylate] and CC(=O)Nc1ccc(-c2ccc3nc(-c4ccc(C)c(NC(=O)C(C)(C)C)c4)cn3n2)cn1 [compound 505, N-(5-(6-(6-acetamidopyridin-3-yl)imidazo[1,2-b]pyridazin-2-yl)-2-methylphenyl)pivalamide] are within 1.5-fold of each other in IC50: 1380 nM for the first, 990 nM for the second.

First: Cc1ccc(-c2cn3nc(-c4ccc(O)cc4C(F)(F)F)ccc3n2)cc1NC(=O)C(C)(C)C [Example 409, N-(5-(6-(4-hydroxy-2-(trifluoromethyl)phenyl)imidazo[1,2-b]pyridazin-2-yl)-2-methylphenyl)pivalamide]
Second: Cc1ccc(-c2cn3nc(-c4ccc(OCCCCC(=O)NO)cc4C(F)(F)F)ccc3n2)cc1NC(=O)C(C)(C)C [Example 454, N-hydroxy-5-(4-(2-(4-methyl-3-pivalamidophenyl)imidazo[1,2-b]pyridazin-6-yl)-3-(trifluoromethyl)phenoxy)pentanamide]
The IC50 of the first is 8.7-fold lower: 236 nM for the first, 2050 nM for the second.

Going from CCOC(=O)C=Cc1cccc(C(=O)Nc2cc(-c3cn4nc(Cl)ccc4n3)ccc2C)c1 [compound 609] to CCOC(=O)C=Cc1cccc(S(=O)(=O)Nc2ccc3nc(-c4ccc(C)c(NC(=O)C(C)(C)C)c4)cn3n2)c1 [compound 603], the IC50 falls from > 10000 nM to 8180 nM. The second is the more potent here.

COC(=O)c1ccc(CNc2ccc3nc(-c4ccc(C)c(NC(=O)C(C)(C)C)c4)cn3n2)cc1 [compound 592] and CNC(=O)c1ccc(-c2ccc3nc(-c4ccc(C)c(NC(=O)C(C)(C)C)c4)cn3n2)cc1 [compound 525] are within 1.5-fold of each other in IC50: 443 nM for the first, 441 nM for the second.

Going from Cc1ccc(-c2cn3nc(-c4cccnc4C(F)(F)F)ccc3n2)cc1NC(=O)C(C)(C)C#N [compound 621, 2-cyano-2-methyl-N-(2-methyl-5-(6-(2-(trifluoromethyl)pyridin-3-yl)imidazo[1,2-b]pyridazin-2-yl)phenyl)propanamide] to Cc1ccc(-c2cn3nc(-c4cccnc4O)ccc3n2)cc1NC(=O)C(C)(C)C [Example 406, N-(5-(6-(2-hydroxypyridin-3-yl)imidazo[1,2-b]pyridazin-2-yl)-2-methylphenyl)pivalamide], the IC50 rises from 53 nM to 2060 nM (39-fold). The first is the more potent here.

First: Cc1ccc(-c2cn3nc(-c4ccc(C(N)=O)cn4)ccc3n2)cc1NC(=O)C(C)(C)C [compound 538, 6-(2-(4-methyl-3-pivalamidophenyl)imidazo[1,2-b]pyridazin-6-yl)nicotinamide]
Second: CC(=O)c1cccc(-c2ccc3nc(-c4ccc(C)c(NC(=O)C(C)(C)C)c4)cn3n2)c1 [compound 527]
The IC50 of the first is 2.4-fold lower: 430 nM for the first, 1050 nM for the second.

First: Cc1ccc(-c2cn3nc(-c4ccc(S(N)(=O)=O)cc4)ccc3n2)cc1NC(=O)C(C)(C)C [compound 534]
Second: Cc1ccc(-c2cn3nc(-c4ccc(C(=O)N(C)C)cc4)ccc3n2)cc1NC(=O)C(C)(C)C [compound 524]
The IC50 of the first is 3-fold higher: 1450 nM for the first, 479 nM for the second. The second is the more potent here.

Compared with COc1ccc2nc(-c3ccc(C)c(NS(=O)(=O)c4cccc(C=CC(=O)NO)c4)c3)cn2n1 [compound 618], CCOC(=O)C=Cc1cccc(S(=O)(=O)Nc2cc(-c3cn4nc(C=CC(=O)OCC)ccc4n3)ccc2C)c1 [compound 608] is 4.5-fold lower in IC50: 9080 nM for the first, 2040 nM for the second.

CC(C)(C)C(=O)Nc1cc(-c2cn3nc(N4CCCC(O)C4)ccc3n2)ccc1C(F)(F)F (centres unmarked) [Example 336, N-(5-(6-(3-hydroxypiperidin-1-yl)imidazo[1,2-b]pyridazin-2-yl)-2-(trifluoromethyl)phenyl)pivalamide] and CC(C)(C)C(=O)Nc1cc(-c2cn3nc(N4CCC(N)C4)ccc3n2)ccc1C(F)(F)F (centres unmarked) [Example 318, N-(5-(6-(3-aminopyrrolidin-1-yl)imidazo[1,2-b]pyridazin-2-yl)-2-(trifluoromethyl)phenyl)pivalamide] are within 1.5-fold of each other in IC50: 230 nM for the first, 203 nM for the second.

Compared with CN1CCN(c2ccc3nc(-c4ccc(C(F)(F)F)c(NC(=O)C(C)(C)C)c4)cn3n2)CC1 [Example 316, N-(5-(6-(4-methylpiperazin-1-yl)imidazo[1,2-b]pyridazin-2-yl)-2-(trifluoromethyl)phenyl)pivalamide], CC(C)(C)OC(=O)N1CCN(c2ccc3nc(-c4ccc(C(F)(F)F)c(NC(=O)C(C)(C)C)c4)cn3n2)CC1 [Example 327, tert-butyl 4-(2-(3-pivalamido-4-(trifluoromethyl)phenyl)imidazo[1,2-b]pyridazin-6-yl)piperazine-1-carboxylate] is 1.9-fold lower in IC50: 937 nM for the first, 484 nM for the second. The second is the more potent here.

First: COC(=O)CCCCCCC(=O)Nc1cc(-c2cn3nc(-c4cccnc4C(F)(F)F)ccc3n2)ccc1C [Example 420, methyl 8-(2-methyl-5-(6-(2-(trifluoromethyl)pyridin-3-yl)imidazo[1,2-b]pyridazin-2-yl)phenylamino)-8-oxooctanoate]
Second: Cc1ccc(-c2cn3nc(-c4ccc(OCCCCCC(=O)NO)cc4C(F)(F)F)ccc3n2)cc1NC(=O)C(C)(C)C [Example 416, N-hydroxy-6-(4-(2-(4-methyl-3-pivalamidophenyl)imidazo[1,2-b]pyridazin-6-yl)-3-(trifluoromethyl)phenoxy)hexanamide]
The IC50 of the first is 5.4-fold higher: 1370 nM for the first, 253 nM for the second.

Going from Cc1ccc(-c2cn3nc(-c4cncc(F)c4)ccc3n2)cc1NC(=O)C(C)(C)C [Example 407, N-(5-(6-(5-fluoropyridin-3-yl)imidazo[1,2-b]pyridazin-2-yl)-2-methylphenyl)pivalamide] to Cc1ccc(-c2cn3nc(-c4cncc(O)c4)ccc3n2)cc1NC(=O)C(C)(C)C [Example 405, N-(5-(6-(5-hydroxypyridin-3-yl)imidazo[1,2-b]pyridazin-2-yl)-2-methylphenyl)pivalamide], the IC50 rises from 353 nM to 1980 nM (5.6-fold).

First: Cc1ccc(-c2cn3nc(NC(=O)c4cc(Cl)ccn4)ccc3n2)cc1NC(=O)C(C)(C)C [compound 613]
Second: Cc1ccc(-c2cn3nc(C=CC(=O)NO)ccc3n2)cc1NC(=O)C(C)(C)C [compound 578]
The IC50 of the first is 33-fold lower: 283 nM for the first, 9280 nM for the second.

Going from C#Cc1ccc(-c2cn3nc(-c4ccccc4F)ccc3n2)cc1N [Example 320, 2-ethynyl-5-(6-(2-fluorophenyl)imidazo[1,2-b]pyridazin-2-yl)aniline] to CC(C)(C)C(=O)Nc1cc(-c2cn3nc(-c4ccccc4N)ccc3n2)ccc1C(F)(F)F [Example 345, N-(5-(6-(2-aminophenyl)imidazo[1,2-b]pyridazin-2-yl)-2-(trifluoromethyl)phenyl)pivalamide], the IC50 falls from 9260 nM to 5490 nM (1.7-fold).

Going from Cc1ccc(-c2cn3nc(N4CCC(F)(F)CC4)ccc3n2)cc1NC(=O)C(C)(C)C [Example 282, N-(5-(6-(4,4-difluoropiperidin-1-yl)imidazo[1,2-b]pyridazin-2-yl)-2-methylphenyl)pivalamide] to Cc1ccc(-c2cn3nc(-c4cccc(C(=O)NOC5CCCCO5)c4)ccc3n2)cc1NC(=O)C(C)(C)C (centres unmarked) [compound 585], the IC50 falls from 1450 nM to 925 nM (1.6-fold). The second is the more potent here.

COc1ccc2nc(-c3ccc(C)c(NC(=O)c4ccc(S(C)(=O)=O)cc4Cl)c3)cn2n1 [Example 95, 2-chloro-N-(5-(6-methoxyimidazo[1,2-b]pyridazin-2-yl)-2-methylphenyl)-4-(methylsulfonyl)benzamide] gave an IC50 of 7860 nM.

same assay, conditions: hShh activation, read-out: Shh (IC50, inhibition of Hedgehog pathway activation)

CC(C)(C)C(=O)Nc1cc(-c2cn3nc(N4CCC(N)C4)ccc3n2)ccc1C(F)(F)F (centres unmarked) [Example 319, N-(5-(6-(3-aminopyrrolidin-1-yl)imidazo[1,2-b]pyridazin-2-yl)-2-(trifluoromethyl)phenyl)pivalamide] gave an IC50 of 347 nM.
